{"source": "paper PMC9095880", "about": "“AIMP2-DX2 provides therapeutic interface to control KRAS-driven tumorigenesis” (Nature Communications, 2022)", "biological_target": "T1, AIMP2 (Homo sapiens, UniProt Q13155)", "T1 construct": "purified AIMP2, in vitro pull-down", "T1 sequence (Q13155 1-320)": "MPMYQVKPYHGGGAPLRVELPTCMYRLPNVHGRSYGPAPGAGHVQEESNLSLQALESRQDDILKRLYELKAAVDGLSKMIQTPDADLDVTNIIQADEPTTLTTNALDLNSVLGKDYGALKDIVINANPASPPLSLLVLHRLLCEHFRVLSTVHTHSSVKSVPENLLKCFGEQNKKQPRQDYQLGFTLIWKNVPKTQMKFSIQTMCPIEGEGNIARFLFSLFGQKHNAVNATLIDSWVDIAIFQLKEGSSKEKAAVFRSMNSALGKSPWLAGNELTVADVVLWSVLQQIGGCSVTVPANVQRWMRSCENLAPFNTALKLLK", "assay": "in vitro pull-down with purified AIMP2", "conditions": "no binding to cellular AIMP2 in immunoprecipitation", "data": [{"molecule": "COc1ccc(-c2ccc(CN(C(=O)c3cnc4ccccc4n3)c3ccccc3F)s2)cc1C", "note": "[BC-DXI-32982]", "values": [{"measurement": "in vitro pull-down with purified AIMP2", "value": "DXI showed binding to the purified AIMP2 in an in vitro pull-down assay"}]}]}
